Test results reported in ChEMBL document CHEMBL2010671, “Structure aided design of chimeric antibiotics” (Bioorg Med Chem Lett, 2012).
Converted amounts (≈) assume the structure as drawn.

How the values were obtained:
Klebsiella pneumoniae = test: Antimicrobial activity against ciprofloxacin-sensitive, SXT-resistant Klebsiella pneumoniae ATCC 700603; type: functional
Staphylococcus aureus = test: Antimicrobial activity against ciprofloxacin-, SXT-sensitive Staphylococcus aureus ATCC 25923; type: functional
Escherichia coli [1] = test: Antimicrobial activity against ciprofloxacin-, SXT-sensitive Escherichia coli ATCC 25922; type: functional
[2] = tested on: Staphylococcus epidermidis; test: Antimicrobial activity against ciprofloxacin-sensitive, SXT-resistant Staphylococcus epidermidis NRS60; type: functional
Pseudomonas aeruginosa = test: Antimicrobial activity against ciprofloxacin-sensitive, SXT-resistant Pseudomonas aeruginosa ATCC 10145; type: functional
Escherichia coli [3] = test: Antimicrobial activity against ciprofloxacin-, SXT-resistant Escherichia coli; type: functional
[4] = Inhibition of DNA decatenation activity of Escherichia coli DNA topoisomerase 4 after 1 hr by agarose gel electrophoresis
[5] = Inhibition of DNA supercoiling activity of Escherichia coli DNA gyrase after 1 hr by agarose gel electrophoresis
HepG2 = test: Cytotoxicity against human HepG2 cells at 100 uM after 48 hrs by MTT assay; type: cell-based; settings: hepg2, 48 h
[6] = Cytotoxicity against human HEK293 cells after 48 hrs by MTT assay; type: cell-based
[7] = Cytotoxicity against human HepG2 cells after 48 hrs by MTT assay; type: cell-based
HEK293 = test: Cytotoxicity against human HEK293 cells at 100 uM after 48 hrs by MTT assay; type: cell-based; settings: hek293, 48 h
Dihydrofolate reductase = target: T1, Dihydrofolate reductase (Homo sapiens, UniProt P00374); test: Inhibition of DHFR using dihydrofolate as substrate following 3 mins substrate preincubation measured after 3 mins by spectrophotometric analysis
T1 sequence (P00374 whole entry): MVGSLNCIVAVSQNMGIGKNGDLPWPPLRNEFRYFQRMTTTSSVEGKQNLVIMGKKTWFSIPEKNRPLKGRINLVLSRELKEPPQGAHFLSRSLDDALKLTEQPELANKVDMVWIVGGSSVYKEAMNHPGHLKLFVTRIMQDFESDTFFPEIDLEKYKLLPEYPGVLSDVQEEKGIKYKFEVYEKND

Molecule	MIC (Klebsiella pneumoniae) [µg/mL]	MIC (Staphylococcus aureus) [µg/mL]	MIC (Escherichia coli [1]) [µg/mL]	MIC [2] [µg/mL]	MIC (Pseudomonas aeruginosa) [µg/mL]	MIC (Escherichia coli [3]) [µg/mL]	IC50 ([4]; read-out: IC50) [µM]	IC50 ([5]; read-out: IC50) [µM]	Activity (HepG2)	CC50 at 48 h [6] [µM]	CC50 at 48 h [7] [µM]	Activity (HEK293)	IC50 (Dihydrofolate reductase) [µM]	IC50 [4]	IC50 [5]
COc1cc(Cc2cnc(Nc3nc4c(cc3F)c(=O)c(C(=O)O)cn4C3CC3)nc2N)cc2c1OCCN2	> 64	> 64	> 64	> 64	> 64	> 64	–	–	–	–	–	–	–	–	–
C#CCNc1nc2c(cc1F)c(=O)c(C(=O)O)cn2C1CC1	> 64	32 (≈ 106 µM)	16 (≈ 53.1 µM)	16 (≈ 53.1 µM)	> 64	> 64	> 250	166	–	–	–	–	–	–	–
COc1cc(Cc2cnc(N)nc2N)cc(OC)c1OC [TRIMETHOPRIM]	2 (≈ 6.89 µM)	1 (≈ 3.44 µM)	0.125 (≈ 0.431 µM)	> 64	> 64	> 64	–	–	–	–	–	–	–	–	–
[N-]=[N+]=Nc1nc2c(cc1F)c(=O)c(C(=O)O)cn2C1CC1	64 (≈ 221 µM)	16 (≈ 55.3 µM)	2 (≈ 6.92 µM)	4 (≈ 13.8 µM)	> 64	> 64	> 250	17	–	–	–	–	–	–	–
C#CCNc1nc2c(cc1F)c(=O)c(C(=O)OCC)cn2C1CC1	–	–	–	–	–	–	–	–	Toxic	80	80	Toxic	–	–	–
Nc1ncc(Cn2cc(CN3CCN(c4nc5c(cc4F)c(=O)c(C(=O)O)cn5C4CC4)CC3)nn2)c(N)n1	> 64	64 (≈ 120 µM)	4 (≈ 7.47 µM)	8 (≈ 14.9 µM)	64 (≈ 120 µM)	> 64	10.7	160	–	–	–	–	–	–	–
COc1cc(Cc2cnc(N)nc2N)cc2c1OCCN2	32 (≈ 111 µM)	8 (≈ 27.8 µM)	8 (≈ 27.8 µM)	> 64	> 64	> 64	> 250	> 250	–	–	–	–	–	–	–
Nc1ncc(COCc2cn(-c3nc4c(cc3F)c(=O)c(C(=O)O)cn4C3CC3)nn2)c(N)n1	16 (≈ 34.2 µM)	4 (≈ 8.56 µM)	0.5 (≈ 1.07 µM)	4 (≈ 8.56 µM)	> 64	> 64	4.5	48	–	–	–	–	> 250	–	–
C#CCN1CCN(c2nc3c(cc2F)c(=O)c(C(=O)O)cn3C2CC2)CC1	8 (≈ 21.6 µM)	0.25 (≈ 0.675 µM)	0.25 (≈ 0.675 µM)	0.5 (≈ 1.35 µM)	8 (≈ 21.6 µM)	> 64	4.4	10	–	–	–	–	–	–	–
COc1cc(Cc2cnc(N)nc2Nc2nc3c(cc2F)c(=O)c(C(=O)O)cn3C2CC2)cc2c1OCCN2	> 64	> 64	> 64	> 64	> 64	> 64	–	–	–	–	–	–	–	–	–
O=C(O)c1cn(C2CC2)c2cc(N3CCNCC3)c(F)cc2c1=O [CIPROFLOXACIN]	0.125 (≈ 0.377 µM)	0.5 (≈ 1.51 µM)	≤ 0.03	0.06 (≈ 0.181 µM)	≤ 0.03	> 64	0.392	0.97	–	–	–	–	–	–	–
Nc1ncc(CNc2nc3c(cc2F)c(=O)c(C(=O)O)cn3C2CC2)c(N)n1	–	> 64	> 64	–	–	–	–	–	–	–	–	–	–	–	–
CCOC(=O)c1cn(C2CC2)c2nc(NCc3cn(Cc4cnc(N)nc4N)nn3)c(F)cc2c1=O	> 64	> 64	> 64	> 64	> 64	> 64	–	–	–	–	–	–	–	Not Active	Not Active
COLISTIN	< 0.03	1	0.06	2	≤ 0.03	> 64	–	–	–	–	–	–	–	–	–
